Test [1] has as its system Mus musculus. As to the kind of experiment: In vivo percent inhibition of multiple sclerosis (MS) by the compound upon oral administration at a dose of 50 mg/kg on EAE model (mice immunized for EAE induction and assessed clinically for 21 days). As to conditions: 504 h. In kind it is functional.
Test [2] concerns Mus musculus. As to the kind of experiment: In vivo percent inhibition of multiple sclerosis (MS) by the compound upon intraperitoneal administration at a dose of 50 mg/kg on EAE model (mice immunized for EAE induction and assessed clinically for 21 days). The class given is functional. The note with it: ip, 504 h.
The next test concerns PBMC. As to the kind of experiment: In vitro inhibitory concentration on the production of pro-inflammatory cytokine IL-2 in PBMC (Peripheral blood mononuclear cells) determined by IL-2 PBMC assay. As to conditions: Homo sapiens. The class given is functional, cell-based.
In test [3] the test system is Mus musculus. Description: In vivo percent inhibition of multiple sclerosis (MS) by the compound upon intraperitoneal administration at a dose of 50 mg/kg on EAE model (mice immunized for EAE induction and assessed clinically for 21 days); non significant effect. In kind it is functional. As to conditions: ip, 504 h.
Test [4] has as its target Vascular endothelial growth factor receptor 2 (Homo sapiens, UniProt P35968). As to the kind of experiment: In vitro inhibition of KDR.

Chain of Vascular endothelial growth factor receptor 2 (P35968 whole entry): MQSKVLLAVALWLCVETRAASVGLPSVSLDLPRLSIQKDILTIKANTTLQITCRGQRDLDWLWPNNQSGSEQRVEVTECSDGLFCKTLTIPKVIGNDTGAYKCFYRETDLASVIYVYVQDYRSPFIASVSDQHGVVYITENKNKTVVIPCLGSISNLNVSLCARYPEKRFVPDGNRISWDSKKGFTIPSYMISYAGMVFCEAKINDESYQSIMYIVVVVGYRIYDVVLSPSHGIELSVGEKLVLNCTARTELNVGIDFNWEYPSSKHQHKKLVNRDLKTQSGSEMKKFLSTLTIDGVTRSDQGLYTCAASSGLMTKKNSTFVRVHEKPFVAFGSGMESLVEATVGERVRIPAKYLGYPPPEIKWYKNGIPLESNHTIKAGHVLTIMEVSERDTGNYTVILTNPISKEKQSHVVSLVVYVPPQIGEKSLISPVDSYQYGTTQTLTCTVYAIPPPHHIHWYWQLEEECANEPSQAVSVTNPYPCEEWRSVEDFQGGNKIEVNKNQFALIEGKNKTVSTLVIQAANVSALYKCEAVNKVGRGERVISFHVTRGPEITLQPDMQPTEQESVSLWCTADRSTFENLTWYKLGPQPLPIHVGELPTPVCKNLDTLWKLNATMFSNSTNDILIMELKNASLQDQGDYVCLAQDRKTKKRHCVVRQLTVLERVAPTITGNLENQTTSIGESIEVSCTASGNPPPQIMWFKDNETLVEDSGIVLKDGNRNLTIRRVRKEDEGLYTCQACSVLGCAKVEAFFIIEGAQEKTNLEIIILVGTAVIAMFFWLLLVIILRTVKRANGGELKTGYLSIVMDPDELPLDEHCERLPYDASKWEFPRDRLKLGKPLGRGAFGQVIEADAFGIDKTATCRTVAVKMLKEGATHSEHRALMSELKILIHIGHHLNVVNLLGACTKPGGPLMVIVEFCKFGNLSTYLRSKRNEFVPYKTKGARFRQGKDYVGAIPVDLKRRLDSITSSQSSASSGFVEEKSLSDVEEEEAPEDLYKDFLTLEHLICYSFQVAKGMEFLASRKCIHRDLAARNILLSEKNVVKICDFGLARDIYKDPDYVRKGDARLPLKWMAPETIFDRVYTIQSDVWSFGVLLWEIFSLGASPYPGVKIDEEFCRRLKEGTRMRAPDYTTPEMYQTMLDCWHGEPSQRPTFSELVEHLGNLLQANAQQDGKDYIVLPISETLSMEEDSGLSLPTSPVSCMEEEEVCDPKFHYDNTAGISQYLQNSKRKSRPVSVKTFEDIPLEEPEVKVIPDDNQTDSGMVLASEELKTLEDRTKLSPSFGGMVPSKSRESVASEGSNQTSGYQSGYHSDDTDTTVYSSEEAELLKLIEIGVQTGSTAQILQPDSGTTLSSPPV

As usually defined, the inhibition in vivo is the change of the read-out against control, counted positive when it falls. The term IC50 denotes the midpoint of a concentration-inhibition curve. As to `COc1ccc(OC)c(/C=C2/C(=O)Nc3ccccc32)c1`, the inhibition in vivo at 50 mg/kg in the test on Mus musculus [1] was -49%; in the test on Mus musculus [2], -90%. In the test on PBMC, this molecule displayed an IC50 of 21 nM.

For `Cc1cc(C)c(/C=C2\C(=O)Nc3ccc(O)cc32)[nH]1`, the inhibition in vivo at 50 mg/kg in the test with Mus musculus [3] was -12%. The half-maximal inhibitory concentration (IC50) was found to be 1000 nM in the test with PBMC and 100 nM in test [4].

As for `Cc1[nH]c(/C=C2\C(=O)Nc3ccccc32)c(C)c1Cl`, in the test on Mus musculus [2], the inhibition in vivo at 50 mg/kg was -96%. Further, the IC50 in the test on PBMC was determined as 4 nM; in test [4], 1000 nM.

In the case of `Cc1cc(C)c(/C=C2\C(=O)Nc3ccccc32)[nH]1` [SEMAXANIB], in the test on Mus musculus [2], the inhibition in vivo at 50 mg/kg was -98%.

Take `CC(=O)ON1C(=O)/C(=C\c2[nH]c(C)cc2C)c2ccccc21`: the inhibition in vivo at 50 mg/kg with Mus musculus [2] was -48%. Moreover, the IC50 in the test with PBMC was 11 nM; in test [4] it was 400 nM.

`Cc1cc(C(=O)O)[nH]c1/C=C1\C(=O)Nc2ccccc21`: the inhibition in vivo at 50 mg/kg with Mus musculus [3] is -23%. In addition, the IC50 is over 1000 nM in the test on PBMC and over 10000 nM in test [4].

For the molecule `Cc1[nH]c(/C=C2\C(=O)Nc3ccccc32)c(C)c1Br`, the inhibition in vivo at 50 mg/kg in the test with Mus musculus [2] was -78%. The IC50 stood at 3 nM in the test on PBMC and 320 nM in test [4].

As to `CCOC(=O)c1cc(C)c(/C=C2\C(=O)Nc3ccccc32)[nH]1`, the inhibition in vivo at 50 mg/kg in the test on Mus musculus [2] was -44%. In addition, the half-inhibitory concentration (IC50) with PBMC came to 14 nM; in test [4], 8000 nM.

As to `Cc1cc(CO)[nH]c1/C=C1\C(=O)Nc2ccccc21`, the inhibition in vivo at 50 mg/kg in the test on Mus musculus [2] was -57%. The figures for the IC50 (in the test on PBMC; in test [4]) were 50 nM and 320 nM, respectively.

As to `O=C1Nc2ccccc2/C1=C/c1ccc[nH]1`, the inhibition in vivo at 50 mg/kg in the test on Mus musculus [3] was -9%.

Regarding `Cc1cc(C)c(/C=C2\C(=O)N(O)c3ccccc32)[nH]1`, the inhibition in vivo at 50 mg/kg in the test on Mus musculus [2] was -67%. In addition, the IC50 was 18 nM in the test on PBMC and 500 nM in test [4].

As to `Clc1ccc(Nc2nnc(Cc3ccncc3)c3ccccc23)cc1` [VATALANIB], the IC50 with PBMC is over 1000 nM.

For the molecule `Cc1cc(C(=O)NCCO)[nH]c1/C=C1\C(=O)Nc2ccccc21`, the inhibition in vivo at 50 mg/kg in the test on Mus musculus [2] is -41%. Further, the IC50 in the test on PBMC was 30 nM; in test [4], over 10000 nM.

As to `O=C1Nc2ccccc2/C1=C/c1c[nH]c2ccccc12`, the inhibition in vivo at 50 mg/kg with Mus musculus [1] was found to be 32%; in the test with Mus musculus [2], 84%. The 50% inhibitory concentration (IC50) with PBMC came to 8 nM.

In the case of `Cc1cc(C)c(/C=C2\C(=O)N(CN3CCN(C)CC3)c3ccccc32)[nH]1`, in the test on Mus musculus [1], the inhibition in vivo at 50 mg/kg is -56%.

The record behind these values is ChEMBL document CHEMBL1141154, “Indolin-2-ones with high in vivo efficacy in a model for multiple sclerosis” (J Med Chem, 2005).
